In US20250368648A1, “MULTI-CYCLIC IRAK AND FLT3 INHIBITING COMPOUNDS AND USES THEREOF” (CHILDREN'S HOSPITAL MEDICAL CENTER, priority 2022, published 2025):
Like-named read-outs stand apart in the source and are kept apart here.

Tests used:
IRAK1 = molecular target: T1, IRAK1 (Homo sapiens, UniProt P51617); assay: RBC HotSpot Kinase Assay, IRAK1; format: biochemical; conditions: HotSpot functional assay, isolated kinase enzyme, 33P-ATP
T1 construct: purchased RBC (Reaction Biology) HotSpot assay
How it was run: (§1)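 Isolated kinases, possibly truncated or lacking regulatory receptor regions, were preincubated with compound for 20 min at room temp in 20 mM Hepes pH 7.5, 10 mM MgCl2, 1 mM EGTA, 2 mM DTT, 1% DMSO. Reactions were started with ^33P-ATP and run 2 h at room temperature; activity was read by P81 filter binding.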

FLT3 = molecular target: T2, FLT3 (Homo sapiens, UniProt P36888); assay: RBC HotSpot Kinase Assay, FLT3; format: biochemical; design: purchased RBC (Reaction Biology) HotSpot assay; conditions: HotSpot functional assay, isolated kinase enzyme, 33P-ATP
T2 sequence (P36888 27-993): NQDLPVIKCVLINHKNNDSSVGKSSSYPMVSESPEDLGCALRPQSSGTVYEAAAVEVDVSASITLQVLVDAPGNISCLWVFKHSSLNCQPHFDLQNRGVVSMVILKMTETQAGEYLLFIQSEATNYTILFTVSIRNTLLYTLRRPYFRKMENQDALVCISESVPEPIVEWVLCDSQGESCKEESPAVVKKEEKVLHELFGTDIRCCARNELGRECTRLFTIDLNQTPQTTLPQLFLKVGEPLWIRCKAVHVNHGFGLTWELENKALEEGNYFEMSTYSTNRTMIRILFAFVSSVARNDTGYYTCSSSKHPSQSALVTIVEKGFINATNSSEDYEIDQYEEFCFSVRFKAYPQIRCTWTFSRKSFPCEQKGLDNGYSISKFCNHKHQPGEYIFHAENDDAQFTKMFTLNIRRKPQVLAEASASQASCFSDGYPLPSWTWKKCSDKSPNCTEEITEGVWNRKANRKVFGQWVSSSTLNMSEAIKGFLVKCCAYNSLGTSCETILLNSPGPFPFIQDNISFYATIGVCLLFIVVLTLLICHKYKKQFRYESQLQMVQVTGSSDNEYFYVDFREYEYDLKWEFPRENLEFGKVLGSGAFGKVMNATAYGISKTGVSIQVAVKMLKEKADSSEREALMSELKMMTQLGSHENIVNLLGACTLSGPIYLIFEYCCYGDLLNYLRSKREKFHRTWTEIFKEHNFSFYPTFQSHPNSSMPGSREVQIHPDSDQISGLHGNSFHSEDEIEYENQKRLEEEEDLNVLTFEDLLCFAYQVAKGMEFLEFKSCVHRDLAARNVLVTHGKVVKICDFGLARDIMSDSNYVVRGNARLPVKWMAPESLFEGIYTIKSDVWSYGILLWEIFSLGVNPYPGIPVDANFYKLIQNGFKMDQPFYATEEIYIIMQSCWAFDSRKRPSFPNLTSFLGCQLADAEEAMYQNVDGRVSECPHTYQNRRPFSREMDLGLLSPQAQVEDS
How it was run: as §1

NF-κB = assay: NF-kB assay in THP-1-Blue NF-κB cells (SEAP reporter); format: cell-based
Method: THP-1-Blue NF-κB cells (InvivoGen) carrying a stable integrated NF-κB-inducible secreted embryonic alkaline phosphatase (SEAP) reporter construct were plated at a concentration of 1×10^5 cells per well. The cells were stimulated with Pam3CSK4 (1 ng/mL) or hIL1B (Ing/mL). After 10-20 minutes, the cells were then treated with vehicle (DMSO) or serial dilutions of the test compounds (10 doses tested for each test compound, with a 1:10 dilution series starting at 1 μM or 3 μM) with a final volume of 200 μL for 24 hours at 37° C. After 24 hours, the cells were centrifuged and 20 IL supernatant was incubated with 180 μL QUANTI-Blue reagent at 37° C. for 30-60 minutes. The levels of NF-κB-induced was measured in a microplate reader at 620 nm.

IRAK4 = molecular target: T3, IRAK4 (Homo sapiens, UniProt Q9NWZ3); assay: RBC HotSpot Kinase Assay, IRAK4; format: biochemical; design: purchased RBC (Reaction Biology) HotSpot assay; conditions: HotSpot functional assay, isolated kinase enzyme, 33P-ATP
T3 sequence (Q9NWZ3 1-460): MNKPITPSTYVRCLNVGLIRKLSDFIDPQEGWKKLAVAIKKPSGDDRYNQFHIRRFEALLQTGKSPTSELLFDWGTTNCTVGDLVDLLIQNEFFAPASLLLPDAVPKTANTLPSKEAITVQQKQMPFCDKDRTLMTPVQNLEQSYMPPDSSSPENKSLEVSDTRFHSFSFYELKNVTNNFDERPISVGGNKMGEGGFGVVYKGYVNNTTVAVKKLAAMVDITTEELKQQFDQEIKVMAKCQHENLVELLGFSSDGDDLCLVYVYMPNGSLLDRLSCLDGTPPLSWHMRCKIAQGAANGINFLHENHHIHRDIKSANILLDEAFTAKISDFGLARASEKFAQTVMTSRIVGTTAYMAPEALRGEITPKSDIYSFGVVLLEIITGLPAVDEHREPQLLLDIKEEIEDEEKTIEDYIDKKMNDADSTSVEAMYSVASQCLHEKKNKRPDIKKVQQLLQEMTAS
How it was run: as §1

MOLM14 D835Y cells = assay: MOLM14 D835Y cell viability assay (Cell Titer Glo); format: cell-based; conditions: Homo sapiens, MOLM-14, 48 h
Method: The cell line has activated FLT3 receptors which carry additional resistance mutations in the kinase domain (D835Y).
MOLM14 D835Y cells were grown in RPMI-1640 media supplemented with 20% fetal bovine serum (FBS). […] After cell addition, 23 nL of test compound were transferred into individual wells (22 doses tested for each test compound, with a 1:2 dilution series starting at 10 μM) via a 1536 pin-tool. Bortezomib (final concentration 2.3 μM) was used as a positive control for cell cytotoxicity.

[1] = THP-1-Blue NF-κB cells stimulated with Pam3CSK4, 24 hours, read-out: NF-κB Pam3SCK4 IC50
[2] = THP-1-Blue NF-κB cells stimulated with hIL1B, 24 hours, read-out: NF-κB IL1B IC50

T1 sequence (P51617 whole entry): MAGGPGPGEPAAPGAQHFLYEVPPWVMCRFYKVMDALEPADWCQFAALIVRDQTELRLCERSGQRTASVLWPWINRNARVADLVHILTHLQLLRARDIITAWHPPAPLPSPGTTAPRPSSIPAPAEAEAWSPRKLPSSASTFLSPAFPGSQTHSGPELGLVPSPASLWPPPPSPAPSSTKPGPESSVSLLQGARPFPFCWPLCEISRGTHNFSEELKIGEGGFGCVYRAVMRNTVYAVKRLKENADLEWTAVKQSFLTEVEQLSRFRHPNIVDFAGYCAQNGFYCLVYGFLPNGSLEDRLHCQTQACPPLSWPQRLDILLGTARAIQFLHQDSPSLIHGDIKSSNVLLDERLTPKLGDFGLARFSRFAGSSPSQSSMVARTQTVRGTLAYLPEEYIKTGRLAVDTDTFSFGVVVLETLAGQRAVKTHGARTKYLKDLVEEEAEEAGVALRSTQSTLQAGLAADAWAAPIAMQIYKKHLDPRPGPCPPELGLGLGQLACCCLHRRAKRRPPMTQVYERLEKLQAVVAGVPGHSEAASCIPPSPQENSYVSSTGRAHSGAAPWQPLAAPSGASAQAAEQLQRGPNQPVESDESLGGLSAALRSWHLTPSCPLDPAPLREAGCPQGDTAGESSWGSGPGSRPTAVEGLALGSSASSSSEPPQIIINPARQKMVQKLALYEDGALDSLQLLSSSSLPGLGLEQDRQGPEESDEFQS

| SMILES | IC50 (IRAK1) | IC50 (FLT3) | IC50 (NF-κB; [1]) | IC50 (NF-κB; [2]) | IC50 (IRAK4) | IC50 (MOLM14 D835Y cells) |
| --- | --- | --- | --- | --- | --- | --- |
| COc1cc2ncc(-c3nc(N[C@H]4CNC[C@@H]4F)c(F)cc3F)n2nc1C1COC1 [Compound 71a, 3,5-difluoro-N-((3S,4S)-4-fluoropyrrolidin-3-yl)-6-(7-methoxy-6-(oxetan-3-yl)imidazo[1,2-b]pyridazin-3-yl)pyridin-2-amine] | 50 nM | < 0.5 nM | 80 nM | 97 nM | 1 nM |  |
| COc1cc2ncc(-c3ccc(C#N)c(N[C@H]4CNCC[C@@H]4F)n3)n2nc1C1CC1 [Compound 29a, 6-(6-cyclopropyl-7-methoxyimidazo[1,2-b]pyridazin-3-yl)-2-(((3S,4S)-4-fluoropiperidin-3-yl)amino)nicotinonitrile] | 10 nM | < 0.5 nM | 66 nM | 70 nM | < 0.5 nM |  |
| Oc1cc2ncc(-c3nc(N[C@@H]4CCCNC4)c(F)cc3F)n2nc1C1CC1 [Compound 75a, (R)-6-cyclopropyl-3-(3,5-difluoro-6-(piperidin-3-ylamino)pyridin-2-yl)imidazo[1,2-b]pyridazin-7-ol] | 473 nM | 0.8 nM | 1740 nM | 2270 nM | 34 nM |  |
| COc1cc2ncc(-c3nc(N[C@@H]4CCCNC4)c(F)cc3F)n2nc1C1CC(C)(C)C1 [Compound 7a, (R)-6-(6-(3,3-dimethylcyclobutyl)-7-methoxyimidazo[1,2-b]pyridazin-3-yl)-3,5-difluoro-N-(piperidin-3-yl)pyridin-2-amine] | 22 nM | < 0.5 nM | 2560 nM | 2560 nM | 13 nM |  |
| COc1cc2ncc(-c3nc(N[C@H]4CNCC[C@@H]4F)c(F)cc3F)n2nc1C1CCO1 (stereo partly drawn) [Compound 74a, 3,5-difluoro-N-((3S,4S)-4-fluoropiperidin-3-yl)-6-(7-methoxy-6-(oxetan-2-yl)imidazo[1,2-b]pyridazin-3-yl)pyridin-2-amine] | 59 nM | < 0.5 nM | 254 nM | 345 nM | 3 nM |  |
| COc1cc2ncc(-c3ccc(C)c(N[C@H]4CNC[C@@H]4F)n3)n2nc1C1CC1 [Compound 42a, 6-(6-cyclopropyl-7-methoxyimidazo[1,2-b]pyridazin-3-yl)-N-((3S,4S)-4-fluoropyrrolidin-3-yl)-3-methylpyridin-2-amine] | > 10000 nM | 135 nM |  |  | 8430 nM | 7250 nM |
| COc1cc2ncc(-c3nc(N[C@H]4CNC[C@@H]4F)ccc3F)n2nc1C(C)(C)O [Compound 2a, 2-(3-(3-fluoro-6-(((3S,4S)-4-fluoropyrrolidin-3-yl)amino)pyridin-2-yl)-7-methoxyimidazo[1,2-b]pyridazin-6-yl)propan-2-ol] | 610 nM | 0.8 nM |  |  | 24 nM | 129 nM |
| COc1cc2ncc(-c3nc(N[C@@H]4CCCNC4)ccc3F)n2nc1C1CC1 [Compound 44a, (R)-6-(6-cyclopropyl-7-methoxyimidazo[1,2-b]pyridazin-3-yl)-5-fluoro-N-(piperidin-3-yl)pyridin-2-amine] | 62 nM | < 0.5 nM |  |  | 2 nM | 3 nM |
| Fc1cc(F)c(-c2cnc3cc(OCC(F)F)cnn23)nc1N[C@H]1CNCC[C@@H]1F [Compound 84a, 6-(7-(2,2-difluoroethoxy)imidazo[1,2-b]pyridazin-3-yl)-3,5-difluoro-N-((3S,4S)-4-fluoropiperidin-3-yl)pyridin-2-amine] | 849 nM | < 0.5 nM |  |  | 4 nM | 46 nM |
| COc1cc2ncc(-c3nc(N[C@H]4CNC[C@@H]4F)c(F)cc3F)n2nc1C1CCC1 [Compound 13a, 6-(6-cyclobutyl-7-methoxyimidazo[1,2-b]pyridazin-3-yl)-3,5-difluoro-N-((3S,4S)-4-fluoropyrrolidin-3-yl)pyridin-2-amine] | 6 nM | < 0.5 nM |  |  | 1 nM | 58 nM |
| COc1cc2ncc(-c3cccc(N[C@H]4CNC[C@@H]4F)n3)n2nc1N1CCCC1=O [Compound 25a, 1-(3-(6-(((3S,4S)-4-fluoropyrrolidin-3-yl)amino)pyridin-2-yl)-7-methoxyimidazo[1,2-b]pyridazin-6-yl)pyrrolidin-2-one] | 283 nM | 1 nM |  |  | 336 nM | 1020 nM |
| COc1cc2ncc(-c3ccc(C)c(N[C@H]4CNCC[C@@H]4F)n3)n2nc1C1CC1 [Compound 38a, 6-(6-cyclopropyl-7-methoxyimidazo[1,2-b]pyridazin-3-yl)-N-((3S,4S)-4-fluoropiperidin-3-yl)-3-methylpyridin-2-amine] | > 10000 nM | 50 nM |  |  | 7080 nM | 2890 nM |
| COc1cc2ncc(-c3ccc(C)c(N[C@@H]4CCCNC4)n3)n2nc1C1CC1 [Compound 41a, (R)-6-(6-cyclopropyl-7-methoxyimidazo[1,2-b]pyridazin-3-yl)-3-methyl-N-(piperidin-3-yl)pyridin-2-amine] | > 10000 nM | 105 nM |  |  | > 10000 nM | 1620 nM |
| COc1cc2ncc(-c3nc(N[C@H]4CNC[C@@H]4F)ccc3C)n2nc1C1CC1 [Compound 43a, 6-(6-cyclopropyl-7-methoxyimidazo[1,2-b]pyridazin-3-yl)-N-((3S,4S)-4-fluoropyrrolidin-3-yl)-5-methylpyridin-2-amine] | 8270 nM | 0.7 nM |  |  | 341 nM | 646 nM |
| Fc1cc(F)c(-c2cnc3cc(OCC(F)F)cnn23)nc1N[C@H]1CNC[C@@H]1F [Compound 82a, 6-(7-(2,2-difluoroethoxy)imidazo[1,2-b]pyridazin-3-yl)-3,5-difluoro-N-((3 S,4S)-4-fluoropyrrolidin-3-yl)pyridin-2-amine] | 441 nM | < 0.5 nM |  |  | 9 nM | 204 nM |
| COc1cc2ncc(-c3ccc(F)c(N[C@H]4CNCC[C@@H]4F)n3)n2nc1C(C)(C)O [Compound 1a, 2-(3-(5-fluoro-6-(((3S,4S)-4-fluoropiperidin-3-yl)amino)pyridin-2-yl)-7-methoxyimidazo[1,2-b]pyridazin-6-yl)propan-2-ol] | 2340 nM | 3 nM |  |  | 158 nM | 182 nM |
